Like-named read-outs stand apart in the source and are kept apart here.
Key:
[1] = target: EGFR del19/T790M/C797S (Homo sapiens, UniProt P00533, C797S/DEL746-750/T790M); experiment: Biochemical EGFR kinase assay (Lance Ultra TR-FRET), triple mutant del19/T790M/C797S
Method in brief: (§1)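 Step 1: compound in kinase buffer, 0.003–10 μM. Step 2: kinase reaction 1 h at room temperature. Step 4: TR-FRET read at 615/665 nm; IC50 calculated.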

[2] = target: EGFR L858R/C797S (Homo sapiens, UniProt P00533, C797S/L858R); experiment: Biochemical EGFR kinase assay (Lance Ultra TR-FRET), double mutant L858R/C797S
Method in brief: as §1

[3] = target: EGFR del19/C797S (Homo sapiens, UniProt P00533, C797S/DEL746-750); experiment: Biochemical EGFR kinase assay (Lance Ultra TR-FRET), double mutant del19/C797S
Sequence of EGFR del19/C797S (P00533 with tags, fused parts or gaps DEL746-750/C797S): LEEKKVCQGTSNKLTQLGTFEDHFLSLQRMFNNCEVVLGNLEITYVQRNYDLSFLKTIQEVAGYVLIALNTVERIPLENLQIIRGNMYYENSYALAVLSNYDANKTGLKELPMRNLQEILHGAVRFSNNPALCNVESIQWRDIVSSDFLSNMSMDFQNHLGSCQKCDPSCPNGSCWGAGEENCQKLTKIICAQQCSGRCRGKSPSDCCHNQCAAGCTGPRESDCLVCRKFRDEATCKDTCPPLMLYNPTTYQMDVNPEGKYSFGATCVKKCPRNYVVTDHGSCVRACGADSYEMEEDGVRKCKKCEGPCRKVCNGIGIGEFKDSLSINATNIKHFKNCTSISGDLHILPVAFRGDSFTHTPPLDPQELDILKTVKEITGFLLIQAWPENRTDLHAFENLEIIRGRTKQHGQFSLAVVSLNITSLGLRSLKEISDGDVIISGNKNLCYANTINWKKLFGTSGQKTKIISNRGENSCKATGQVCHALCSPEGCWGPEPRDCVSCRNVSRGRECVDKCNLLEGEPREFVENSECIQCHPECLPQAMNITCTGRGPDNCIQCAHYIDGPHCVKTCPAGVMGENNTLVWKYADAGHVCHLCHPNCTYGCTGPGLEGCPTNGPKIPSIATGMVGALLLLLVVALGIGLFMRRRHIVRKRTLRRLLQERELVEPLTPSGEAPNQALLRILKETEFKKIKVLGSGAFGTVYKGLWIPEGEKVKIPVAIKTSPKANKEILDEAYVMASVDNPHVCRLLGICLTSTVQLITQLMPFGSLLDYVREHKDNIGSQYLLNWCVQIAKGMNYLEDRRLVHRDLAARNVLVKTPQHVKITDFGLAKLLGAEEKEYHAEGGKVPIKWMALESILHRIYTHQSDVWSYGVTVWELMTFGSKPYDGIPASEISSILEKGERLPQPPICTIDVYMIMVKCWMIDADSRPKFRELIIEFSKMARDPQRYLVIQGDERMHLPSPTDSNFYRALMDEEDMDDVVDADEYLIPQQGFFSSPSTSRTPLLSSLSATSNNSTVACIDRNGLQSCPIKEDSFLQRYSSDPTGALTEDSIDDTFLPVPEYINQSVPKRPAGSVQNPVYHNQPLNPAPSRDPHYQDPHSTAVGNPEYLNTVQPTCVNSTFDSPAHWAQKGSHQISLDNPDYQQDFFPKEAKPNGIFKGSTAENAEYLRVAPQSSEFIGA
Method in brief: as §1

[4] = target: EGFR L858R/T790M/C797S (Homo sapiens, UniProt P00533, C797S/L858R/T790M); experiment: Biochemical EGFR kinase assay (Lance Ultra TR-FRET), triple mutant L858R/T790M/C797S
Sequence of EGFR L858R/T790M/C797S (P00533 25-1210 T790M/C797S/L858R): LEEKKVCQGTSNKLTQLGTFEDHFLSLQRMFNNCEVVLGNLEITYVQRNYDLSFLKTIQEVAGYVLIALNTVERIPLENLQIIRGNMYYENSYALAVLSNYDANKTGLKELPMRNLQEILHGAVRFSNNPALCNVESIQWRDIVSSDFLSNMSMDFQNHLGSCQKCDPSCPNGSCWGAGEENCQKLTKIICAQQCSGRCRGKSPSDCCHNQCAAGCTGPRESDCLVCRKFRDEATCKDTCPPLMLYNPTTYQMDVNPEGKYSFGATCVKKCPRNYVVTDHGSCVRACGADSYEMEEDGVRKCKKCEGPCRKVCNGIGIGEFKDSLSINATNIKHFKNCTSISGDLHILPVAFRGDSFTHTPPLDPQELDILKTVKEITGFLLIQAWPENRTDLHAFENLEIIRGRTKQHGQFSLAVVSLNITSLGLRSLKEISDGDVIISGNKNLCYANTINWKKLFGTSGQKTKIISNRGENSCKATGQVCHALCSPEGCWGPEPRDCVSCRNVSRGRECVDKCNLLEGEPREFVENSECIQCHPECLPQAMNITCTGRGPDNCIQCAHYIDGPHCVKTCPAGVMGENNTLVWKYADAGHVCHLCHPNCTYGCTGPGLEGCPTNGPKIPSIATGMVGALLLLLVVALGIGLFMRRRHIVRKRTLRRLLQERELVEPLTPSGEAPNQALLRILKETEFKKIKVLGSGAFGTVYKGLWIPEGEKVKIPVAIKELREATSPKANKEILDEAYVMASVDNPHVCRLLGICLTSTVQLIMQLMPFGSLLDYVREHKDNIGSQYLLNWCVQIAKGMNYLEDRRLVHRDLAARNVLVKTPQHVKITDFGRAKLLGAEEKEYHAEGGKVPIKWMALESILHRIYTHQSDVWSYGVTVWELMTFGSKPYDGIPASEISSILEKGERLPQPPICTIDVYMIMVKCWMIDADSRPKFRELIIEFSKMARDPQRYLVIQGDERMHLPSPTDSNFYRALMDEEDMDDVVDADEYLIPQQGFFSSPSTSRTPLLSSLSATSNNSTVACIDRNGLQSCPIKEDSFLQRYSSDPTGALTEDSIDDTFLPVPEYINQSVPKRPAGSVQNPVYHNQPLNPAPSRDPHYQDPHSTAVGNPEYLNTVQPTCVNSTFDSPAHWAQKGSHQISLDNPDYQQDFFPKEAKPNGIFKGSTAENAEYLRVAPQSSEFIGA
Method in brief: as §1

[5] = target: EGFR wildtype (Homo sapiens, UniProt P00533); experiment: Biochemical EGFR kinase assay (Lance Ultra TR-FRET), wildtype
Sequence of EGFR wildtype (P00533 25-1210): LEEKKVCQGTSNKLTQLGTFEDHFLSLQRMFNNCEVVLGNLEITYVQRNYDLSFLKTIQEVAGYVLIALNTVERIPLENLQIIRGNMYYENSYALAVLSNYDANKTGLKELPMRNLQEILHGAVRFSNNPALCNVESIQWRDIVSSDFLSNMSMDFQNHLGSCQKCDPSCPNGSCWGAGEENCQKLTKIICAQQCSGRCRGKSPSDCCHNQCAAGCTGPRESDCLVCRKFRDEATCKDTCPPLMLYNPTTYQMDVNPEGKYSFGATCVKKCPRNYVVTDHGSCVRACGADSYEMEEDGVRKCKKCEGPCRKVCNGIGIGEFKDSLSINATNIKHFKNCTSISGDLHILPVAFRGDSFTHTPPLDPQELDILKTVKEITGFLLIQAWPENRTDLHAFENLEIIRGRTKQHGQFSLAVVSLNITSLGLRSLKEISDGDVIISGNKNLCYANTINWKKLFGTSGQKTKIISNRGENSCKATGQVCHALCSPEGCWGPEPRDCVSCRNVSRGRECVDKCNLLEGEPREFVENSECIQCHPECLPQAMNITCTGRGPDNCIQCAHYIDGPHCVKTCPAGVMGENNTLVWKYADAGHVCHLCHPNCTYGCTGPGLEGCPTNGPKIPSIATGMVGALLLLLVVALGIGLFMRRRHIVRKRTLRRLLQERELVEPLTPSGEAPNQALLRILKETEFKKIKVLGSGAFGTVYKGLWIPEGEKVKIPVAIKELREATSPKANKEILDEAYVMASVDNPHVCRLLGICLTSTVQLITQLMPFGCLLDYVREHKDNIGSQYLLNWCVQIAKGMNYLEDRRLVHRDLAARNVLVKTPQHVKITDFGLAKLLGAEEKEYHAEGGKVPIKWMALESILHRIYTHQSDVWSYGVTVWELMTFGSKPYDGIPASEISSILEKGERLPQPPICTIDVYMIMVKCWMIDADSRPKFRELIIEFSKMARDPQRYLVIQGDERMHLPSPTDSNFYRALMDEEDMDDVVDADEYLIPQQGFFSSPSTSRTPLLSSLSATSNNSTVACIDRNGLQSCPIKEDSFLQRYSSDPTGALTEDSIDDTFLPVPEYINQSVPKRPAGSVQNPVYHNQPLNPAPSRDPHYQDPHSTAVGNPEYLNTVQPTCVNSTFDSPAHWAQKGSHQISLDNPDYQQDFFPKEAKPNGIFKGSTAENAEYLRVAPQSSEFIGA
Method in brief: as §1

[6] = IC50 del19/T790M/C797S (nM) 100 μM ATP, 100 μM ATP
[7] = Km ATP, read-out: IC50 del19/T790M/C797S (nM) Km ATP
[8] = IC50 L858R/C797S (nM) 100 μM ATP, 100 μM ATP
[9] = Km ATP, read-out: IC50 L858R/C797S (nM) Km ATP
[10] = IC50 del19/C797S (nM) 100 μM ATP, 100 μM ATP
[11] = Km ATP, read-out: IC50 del19/C797S (nM) Km ATP
[12] = IC50 L858R/T790M/C797S (nM) 100 μM ATP, 100 μM ATP
[13] = Km ATP, read-out: IC50 L858R/T790M/C797S (nM) Km ATP
[14] = IC50 WT (nM) 100 μM ATP, 100 μM ATP
[15] = Km ATP, read-out: IC50 WT (nM) Km ATP
[16] = IC50 del19/T790M/C797S, 100 μM ATP
[17] = IC50 L858R/T790M/C797S, 100 μM ATP
[18] = ATP at Km, read-out: IC50 del19/T790M/C797S, Km ATP
[19] = ATP at Km, read-out: IC50 L858R/C797S, Km ATP
[20] = ATP at Km, read-out: IC50 del19/C797S, Km ATP
[21] = ATP at Km, read-out: IC50 L858R/T790M/C797S, Km ATP
[22] = ATP at Km, read-out: IC50 WT, Km ATP

Sequence of EGFR del19/T790M/C797S (P00533 with tags, fused parts or gaps DEL746-750/T790M/C797S): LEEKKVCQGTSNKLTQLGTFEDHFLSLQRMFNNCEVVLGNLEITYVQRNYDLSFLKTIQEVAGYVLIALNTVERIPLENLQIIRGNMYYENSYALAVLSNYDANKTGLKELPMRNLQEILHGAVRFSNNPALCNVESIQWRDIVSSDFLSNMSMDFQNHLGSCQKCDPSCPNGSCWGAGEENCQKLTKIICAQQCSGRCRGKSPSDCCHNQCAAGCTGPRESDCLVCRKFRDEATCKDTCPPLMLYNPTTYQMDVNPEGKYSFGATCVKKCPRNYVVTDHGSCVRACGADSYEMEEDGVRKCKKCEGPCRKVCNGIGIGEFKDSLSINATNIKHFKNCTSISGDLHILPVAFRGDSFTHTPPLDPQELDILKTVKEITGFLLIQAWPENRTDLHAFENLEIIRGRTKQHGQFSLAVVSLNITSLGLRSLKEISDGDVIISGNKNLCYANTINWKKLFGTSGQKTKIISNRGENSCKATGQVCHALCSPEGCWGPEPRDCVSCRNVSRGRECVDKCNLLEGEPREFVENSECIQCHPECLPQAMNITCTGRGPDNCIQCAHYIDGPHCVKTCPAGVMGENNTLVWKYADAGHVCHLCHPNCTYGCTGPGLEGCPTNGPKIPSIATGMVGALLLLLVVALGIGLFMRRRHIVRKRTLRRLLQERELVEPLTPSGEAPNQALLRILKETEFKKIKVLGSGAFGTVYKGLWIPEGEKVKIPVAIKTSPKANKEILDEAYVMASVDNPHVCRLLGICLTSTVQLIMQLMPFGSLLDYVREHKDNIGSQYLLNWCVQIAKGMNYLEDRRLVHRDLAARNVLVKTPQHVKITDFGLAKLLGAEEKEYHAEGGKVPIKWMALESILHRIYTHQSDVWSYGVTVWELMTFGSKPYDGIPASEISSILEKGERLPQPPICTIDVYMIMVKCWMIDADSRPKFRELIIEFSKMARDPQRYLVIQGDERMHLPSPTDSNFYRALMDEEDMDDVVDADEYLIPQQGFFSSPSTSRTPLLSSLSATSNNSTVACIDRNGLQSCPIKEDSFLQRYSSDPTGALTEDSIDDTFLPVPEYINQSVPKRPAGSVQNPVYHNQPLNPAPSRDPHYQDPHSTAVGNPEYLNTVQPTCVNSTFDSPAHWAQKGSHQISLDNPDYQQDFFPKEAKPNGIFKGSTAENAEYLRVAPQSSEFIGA

SMILES	IC50 [1, 6]	IC50 [1, 7]	IC50 [2, 8]	IC50 [2, 9]	IC50 [3, 10]	IC50 [3, 11]	IC50 [4, 12]	IC50 [4, 13]	IC50 [5, 14]	IC50 [5, 15]	other results
C[C@]1(O)CC[C@@H](Nc2cc(Nc3ccnc(-c4cnn(S(=O)(=O)C5CC5)c4)n3)ncc2-c2ccc(CN3CCC(F)(F)CC3)cn2)CC1 [Example 33, (1s,4s)-4-((6′-((2-(1-(Cyclopropylsulfonyl)-1H-pyrazol-4-yl)pyrimidin-4-yl)amino)-5-((4,4-difluoropiperidin-1-yl)methyl)-[2,3′-bipyridin]-4′-yl)amino)-1-methylcyclohexan-1-ol]	3.9 nM	2.6 nM	29.3 nM	1.7 nM	1.3 nM	2.1 nM	3.1 nM	1.7 nM	813 nM	7.9 nM	
C[C@]1(O)CC[C@@H](Nc2cc(Nc3ccnc(-c4cnn(S(=O)(=O)C5CC5)c4)n3)ncc2-c2cnc(C(F)(F)F)cn2)CC1 [Example 134, (1s,4s)-4-((2-((2-(1-(Cyclopropylsulfonyl)-1H-pyrazol-4-yl)pyrimidin-4-yl)amino)-5-(5-(trifluoromethyl)pyrazin-2-yl)pyridin-4-yl)amino)-1-methylcyclohexan-1-ol]		0.9 nM		15.6 nM		32.1 nM		0.6 nM		34.2 nM	
C[C@]1(O)CC[C@@H](Nc2cc(Nc3ccnc(-c4cnn(S(=O)(=O)C5CC5)c4)n3)ncc2-c2ccc(C(=O)N3CCOCC3)cn2)CC1 [Example 284, (6′-((2-(1-(Cyclopropylsulfonyl)-1H-pyrazol-4-yl)pyrimidin-4-yl)amino)-4′-(((1s,4s)-4-hydroxy-4-methylcyclohexyl)amino)-[2,3′-bipyridin]-5-yl)(morpholino)methanone]											IC50 [1, 16]: 0.1 nM; IC50 ([2]; IC50 L858R/C797S, 100 μM ATP): 0.4 nM; IC50 ([3]; IC50 del19/C797S, 100 μM ATP): 0.2 nM; IC50 [4, 17]: 0.2 nM; IC50 ([5]; IC50 WT, 100 μM ATP): 176 nM
C[C@]1(O)CC[C@@H](Nc2cc(Nc3ccnc(-c4cnn(S(=O)(=O)C5CC5)c4)n3)ncc2-c2cc(CN3CCOCC3)ccn2)CC1 [Example 61, (1s,4s)-4-((6′-((2-(1-(Cyclopropylsulfonyl)-1H-pyrazol-4-yl)pyrimidin-4-yl)amino)-4-(morpholinomethyl)-[2,3′-bipyridin]-4′-yl)amino)-1-methylcyclohexan-1-ol]	0.2 nM		1.8 nM		0.4 nM		0.2 nM		3940 nM		
O=S(=O)(C1CC1)n1cc(-c2nccc(Nc3cc(N[C@H]4CC[C@@H](F)CC4)c(-c4cnc(OC5CCOCC5)cn4)cn3)n2)cn1 [Example 151, N^2-(2-(1-(Cyclopropylsulfonyl)-1H-pyrazol-4-yl)pyrimidin-4-yl)-N^4-((1s,4s)-4-fluorocyclohexyl)-5-(5-((tetrahydro-2H-pyran-4-yl)oxy)pyrazin-2-yl)pyridine-2,4-diamine]											IC50 [1, 18]: 0.8 nM; IC50 [2, 19]: 17.2 nM; IC50 [3, 20]: 34 nM; IC50 [4, 21]: 0.1 nM; IC50 [5, 22]: 1910 nM
C[C@]1(O)CC[C@@H](Nc2cc(Nc3ccnc(-c4cnn(S(=O)(=O)C5CC5)c4)n3)ncc2-c2ccc(C(F)F)cn2)CC1 [Example 63, (1s,4s)-4-((6′-((2-(1-(Cyclopropylsulfonyl)-1H-pyrazol-4-yl)pyrimidin-4-yl)amino)-5-(difluoromethyl)-[2,3′-bipyridin]-4′-yl)amino)-1-methylcyclohexan-1-ol]	0.2 nM		5.4 nM		0.8 nM		0.2 nM		> 10000 nM		
CN1CCN(S(=O)(=O)c2ccc(-c3cnc(Nc4ccnc(-c5cnn(S(=O)(=O)C6CC6)c5)n4)cc3N[C@H]3CC[C@@](C)(O)CC3)nc2)CC1 [Example 188, (1s,4s)-4-((6′-((2-(1-(Cyclopropylsulfonyl)-1H-pyrazol-4-yl)pyrimidin-4-yl)amino)-5-((4-methylpiperazin-1-yl)sulfonyl)-[2,3′-bipyridin]-4′-yl)amino)-1-methylcyclohexan-1-ol]											IC50 [1, 16]: 1.1 nM; IC50 [2, 19]: 0.8 nM; IC50 ([2]; IC50 L858R/C797S, 100 μM ATP): 11.3 nM; IC50 [3, 20]: 2.3 nM; IC50 ([3]; IC50 del19/C797S, 100 μM ATP): 1.8 nM; IC50 [4, 17]: 1 nM; IC50 [5, 22]: 9.5 nM; IC50 ([5]; IC50 WT, 100 μM ATP): > 10000 nM
Cc1cnc(-c2cnc(Nc3ccnc(-c4cnn(S(=O)(=O)C5CC5)c4)n3)cc2N[C@H]2CC[C@@](C)(O)CC2)cn1 [Example 59, (1s,4s)-4-((2-((2-(1-(Cyclopropylsulfonyl)-1H-pyrazol-4-yl)pyrimidin-4-yl)amino)-5-(5-methylpyrazin-2-yl)pyridin-4-yl)amino)-1-methylcyclohexan-1-ol]	0.4 nM	0.3 nM	7.4 nM	1 nM	0.9 nM	0.6 nM	0.7 nM	0.5 nM	> 10000 nM	14.8 nM	
C[C@]1(O)CC[C@@H](Nc2cc(Nc3ccnc(-c4cnn(S(=O)(=O)C5CC5)c4)n3)ncc2-c2cnc(N3CCC(F)(F)CC3)cn2)CC1 [Example 75, (1s,4s)-4-((2-((2-(1-(Cyclopropylsulfonyl)-1H-pyrazol-4-yl)pyrimidin-4-yl)amino)-5-(5-(4,4-difluoropiperidin-1-yl)pyrazin-2-yl)pyridin-4-yl)amino)-1-methylcyclohexan-1-ol]	15.2 nM	8.7 nM	313 nM	68.9 nM	33.2 nM	34 nM	15.2 nM	6.6 nM	> 10000 nM	143 nM	
C[C@]1(O)CC[C@@H](Nc2cc(Nc3ccnc(-c4cnn(S(=O)(=O)C5CC5)c4)n3)ncc2-c2ccc(CN3CCOCC3)cn2)CC1 [Example 32, (1s,4s)-4-((6′-((2-(1-(Cyclopropylsulfonyl)-1H-pyrazol-4-yl)pyrimidin-4-yl)amino)-5-(morpholinomethyl)-[2,3′-bipyridin]-4′-yl)amino)-1-methylcyclohexan-1-ol]	0.4 nM	0.2 nM	1.9 nM	0.1 nM	0.1 nM	0.2 nM	0.3 nM	0.2 nM	120 nM	0.3 nM	
CC(C)(O)[C@H]1CC[C@@H](Nc2cc(Nc3ccnc(-c4cnn(S(=O)(=O)C5CC5)c4)n3)ncc2-c2ccc(N3CC(F)(F)C3)cn2)CC1 [Example 225, 2-((1s,4s)-4-((6′-((2-(1-(Cyclopropylsulfonyl)-1H-pyrazol-4-yl)pyrimidin-4-yl)amino)-5-(3,3-difluoroazetidin-1-yl)-[2,3′-bipyridin]-4′-yl)amino)cyclohexyl)propan-2-ol]											IC50 [1, 18]: 6.9 nM; IC50 ([1]; read-out: IC50 del19/T790M/C797S, 100 μM ATP): 6 nM; IC50 [2, 19]: 10.2 nM; IC50 ([2]; read-out: IC50 L858R/C797S, 100 μM ATP): 799 nM; IC50 [3, 20]: 16.1 nM; IC50 ([3]; read-out: IC50 del19/C797S, 100 μM ATP): 19.8 nM; IC50 [4, 21]: 2.5 nM; IC50 ([4]; read-out: IC50 L858R/T790M/C797S, 100 μM ATP): 4.4 nM; IC50 [5, 22]: 33.8 nM; IC50 ([5]; read-out: IC50 WT, 100 μM ATP): > 10000 nM
C[C@]1(O)CC[C@@H](Nc2cc(Nc3ccnc(-c4cnn(S(=O)(=O)C5CC5)c4)n3)ncc2-c2ccc(OC(F)F)cn2)CC1 [Example 332, (1s,4s)-4-((6′-((2-(1-(Cyclopropylsulfonyl)-1H-pyrazol-4-yl)pyrimidin-4-yl)amino)-5-(difluoromethoxy)-[2,3′-bipyridin]-4′-yl)amino)-1-methylcyclohexan-1-ol]		1.6 nM		1.8 nM		2.4 nM		0.7 nM		21 nM	

From patent US12258328B2, “6-membered heteroaryl-containing aminopyridine compounds as EGFR inhibitors” (YUHAN CORPORATION, priority 2021, dated 2025)
